Results as given in patent US12251382B2, “Substituted amino-pyrimidine compound for use in a method for treatment and prevention of multiple sclerosis” (Merck Patent GmbH, priority 2018, dated 2025).

Key:
[1] = Phase I Part 2 (multiple ascending dose study): safety and tolerability, TEAEs; format: in vivo, human
Description: The decision whether to initiate Part 2 of the study, as well as the MAD starting dose, was determined by the SMC based on review of safety data from Part 1, with PK and PD data also used to inform the decision. Dose-limiting criteria and termination/stopping rules were as per Part 1 of the study. […] Ultimately, dose levels of 25, 75, and 200 mg were selected.
Data were summarized using descriptive statistics.

[2] = Clinical trial of relative bioavailability of tablet vs powder-in-capsule incl. food effect in healthy volunteers; format: in vivo, human; conditions: oral administration in proximity in time to food (fed vs fasted)
[3] = test system: BCR- and FcR-mediated signalling; conditions: variety of human cellular assays; cited from earlier work
RA and SLE models = conditions: in vivo; cited from earlier work
[4] = Part 2, 25 mg once daily, 14 days
[5] = Part 2, 75 mg once daily, 14 days
[6] = Part 2, 200 mg once daily, 14 days
[7] = Part 2, pooled active, listed as evobrutinib

SMILES: C=CC(=O)N1CCC(CNc2ncnc(N)c2-c2ccc(Oc3ccccc3)cc2)CC1 [Evobrutinib, 1-(4-(((6-amino-5-(4-phenoxyphenyl)pyrimidin-4-yl)amino)methyl)piperidin-1-yl)prop-2-en-1-one]
- Relation of gastrointestinal or other TEAEs to dose ([1]; Part 2): No relation to dose was observed
- Severity of TEAEs and dose-limiting adverse events ([1]; Part 2): mild and no dose-limiting adverse events were reported
- Abdominal discomfort, number of TEAEs [1, 4]: 1
- Abdominal discomfort, subjects [1, 4]: 1 (11.1) n (%)
- Abdominal pain, subjects [1, 4]: 0 (0.0) n (%)
- Application site irritation, subjects [1, 4]: 0 (0.0) n (%)
- Complex regional pain, number of TEAEs [1, 4]: 1
- Complex regional pain, subjects [1, 4]: 1 (11.1) n (%)
- Constipation, subjects [1, 4]: 0 (0.0) n (%)
- Dry throat, subjects [1, 4]: 0 (0.0) n (%)
- Excoriation, number of TEAEs [1, 4]: 1
- Excoriation, subjects [1, 4]: 1 (11.1) n (%)
- Fatigue, subjects [1, 4]: 0 (0.0) n (%)
- Headache, number of TEAEs [1, 4]: 1
- Headache, subjects [1, 4]: 1 (11.1) n (%)
- Muscle spasms, subjects [1, 4]: 0 (0.0) n (%)
- Muscle strain, number of TEAEs [1, 4]: 1
- Muscle strain, subjects [1, 4]: 1 (11.1) n (%)
- Nausea, subjects [1, 4]: 0 (0.0) n (%)
- Overall total TEAEs, subjects [1, 4]: 3 (33.3) n (%)
- Overall total, number of TEAEs [1, 4]: 6
- Rhinorrhea, number of TEAEs [1, 4]: 1
- Rhinorrhea, subjects [1, 4]: 1 (11.1) n (%)
- Sneezing, subjects [1, 4]: 0 (0.0) n (%)
- Toothache, subjects [1, 4]: 0 (0.0) n (%)
- Upper respiratory tract infection, subjects [1, 4]: 0 (0.0) n (%)
- Abdominal discomfort, subjects [1, 5]: 0 (0.0) n (%)
- Abdominal pain, number of TEAEs [1, 5]: 2
- Abdominal pain, subjects [1, 5]: 1 (11.1) n (%)
- Application site irritation, number of TEAEs [1, 5]: 1
- Application site irritation, subjects [1, 5]: 1 (11.1) n (%)
- Complex regional pain, subjects [1, 5]: 0 (0.0) n (%)
- Constipation, number of TEAEs [1, 5]: 1
- Constipation, subjects [1, 5]: 1 (11.1) n (%)
- Dry throat, number of TEAEs [1, 5]: 1
- Dry throat, subjects [1, 5]: 1 (11.1) n (%)
- Excoriation, subjects [1, 5]: 0 (0.0) n (%)
- Fatigue, number of TEAEs [1, 5]: 2
- Fatigue, subjects [1, 5]: 2 (22.2) n (%)
- Headache, number of TEAEs [1, 5]: 2
- Headache, subjects [1, 5]: 2 (22.2) n (%)
- Muscle spasms, number of TEAEs [1, 5]: 1
- Muscle spasms, subjects [1, 5]: 1 (11.1) n (%)
- Muscle strain, subjects [1, 5]: 0 (0.0) n (%)
- Nausea, number of TEAEs [1, 5]: 2
- Nausea, subjects [1, 5]: 1 (11.1) n (%)
- Overall total TEAEs, subjects [1, 5]: 7 (77.8) n (%)
- Overall total, number of TEAEs [1, 5]: 14
- Rhinorrhea, subjects [1, 5]: 0 (0.0) n (%)
- Sneezing, number of TEAEs [1, 5]: 1
- Sneezing, subjects [1, 5]: 1 (11.1) n (%)
- Toothache, subjects [1, 5]: 0 (0.0) n (%)
- Upper respiratory tract infection, number of TEAEs [1, 5]: 1
- Upper respiratory tract infection, subjects [1, 5]: 1 (11.1) n (%)
- Abdominal discomfort, subjects [1, 6]: 0 (0.0) n (%)
- Abdominal pain, subjects [1, 6]: 0 (0.0) n (%)
- Application site irritation, number of TEAEs [1, 6]: 1
- Application site irritation, subjects [1, 6]: 1 (11.1) n (%)
- Complex regional pain, subjects [1, 6]: 0 (0.0) n (%)
- Constipation, subjects [1, 6]: 0 (0.0) n (%)
- Dry throat, subjects [1, 6]: 0 (0.0) n (%)
- Excoriation, subjects [1, 6]: 0 (0.0) n (%)
- Fatigue, subjects [1, 6]: 0 (0.0) n (%)
- Headache, subjects [1, 6]: 0 (0.0) n (%)
- Muscle spasms, subjects [1, 6]: 0 (0.0) n (%)
- Muscle strain, subjects [1, 6]: 0 (0.0) n (%)
- Nausea, subjects [1, 6]: 0 (0.0) n (%)
- Overall total TEAEs, subjects [1, 6]: 3 (33.3) n (%)
- Overall total, number of TEAEs [1, 6]: 3
- Rhinorrhea, subjects [1, 6]: 0 (0.0) n (%)
- Sneezing, subjects [1, 6]: 0 (0.0) n (%)
- Toothache, number of TEAEs [1, 6]: 1
- Toothache, subjects [1, 6]: 1 (11.1) n (%)
- Upper respiratory tract infection, number of TEAEs [1, 6]: 1
- Upper respiratory tract infection, subjects [1, 6]: 1 (11.1) n (%)
- Number of gastrointestinal TEAEs ([1]; Part 2, all evobrutinib doses): Seven
- Subjects with fatigue ([1]; Part 2, all evobrutinib doses): 7.4%
- Subjects with gastrointestinal TEAEs ([1]; Part 2, all evobrutinib doses): 18.5%
- Subjects with headache ([1]; Part 2, all evobrutinib doses): 11.1%
- Subjects with skin irritation due to ECG pads ([1]; Part 2, all evobrutinib doses): 7.4%
- Subjects with upper respiratory tract infection ([1]; Part 2, all evobrutinib doses): 7.4%
- Subjects with TEAEs ([1]; Part 2, multiple dosing, all evobrutinib doses): 48.1%
- Abdominal discomfort, number of TEAEs ([1]; Part 2, pooled active): 1
- Abdominal discomfort, subjects ([1]; Part 2, pooled active): 1 (3.7) n (%)
- Abdominal pain, number of TEAEs ([1]; Part 2, pooled active): 2
- Abdominal pain, subjects ([1]; Part 2, pooled active): 1 (3.7) n (%)
- Application site irritation, number of TEAEs ([1]; Part 2, pooled active): 2
- Application site irritation, subjects ([1]; Part 2, pooled active): 2 (7.4) n (%)
- Complex regional pain, number of TEAEs ([1]; Part 2, pooled active): 1
- Complex regional pain, subjects ([1]; Part 2, pooled active): 1 (3.7) n (%)
- Constipation, number of TEAEs ([1]; Part 2, pooled active): 1
- Constipation, subjects ([1]; Part 2, pooled active): 1 (3.7) n (%)
- Dry throat, number of TEAEs ([1]; Part 2, pooled active): 1
- Dry throat, subjects ([1]; Part 2, pooled active): 1 (3.7) n (%)
- Excoriation, number of TEAEs ([1]; Part 2, pooled active): 1
- Excoriation, subjects ([1]; Part 2, pooled active): 1 (3.7) n (%)
- Fatigue, number of TEAEs ([1]; Part 2, pooled active): 2
- Fatigue, subjects ([1]; Part 2, pooled active): 2 (7.4) n (%)
- Headache, number of TEAEs ([1]; Part 2, pooled active): 3
- Headache, subjects ([1]; Part 2, pooled active): 3 (11.1) n (%)
- Muscle spasms, number of TEAEs ([1]; Part 2, pooled active): 1
- Muscle spasms, subjects ([1]; Part 2, pooled active): 1 (3.7) n (%)
- Muscle strain, number of TEAEs ([1]; Part 2, pooled active): 1
- Muscle strain, subjects ([1]; Part 2, pooled active): 1 (3.7) n (%)
- Nausea, number of TEAEs ([1]; Part 2, pooled active): 2
- Nausea, subjects ([1]; Part 2, pooled active): 1 (3.7) n (%)
- Overall total TEAEs, subjects ([1]; Part 2, pooled active): 13 (48.1) n (%)
- Overall total, number of TEAEs ([1]; Part 2, pooled active): 23
- Rhinorrhea, number of TEAEs ([1]; Part 2, pooled active): 1
- Rhinorrhea, subjects ([1]; Part 2, pooled active): 1 (3.7) n (%)
- Sneezing, number of TEAEs ([1]; Part 2, pooled active): 1
- Sneezing, subjects ([1]; Part 2, pooled active): 1 (3.7) n (%)
- Toothache, number of TEAEs ([1]; Part 2, pooled active): 1
- Toothache, subjects ([1]; Part 2, pooled active): 1 (3.7) n (%)
- Upper respiratory tract infection, number of TEAEs ([1]; Part 2, pooled active): 2
- Upper respiratory tract infection, subjects ([1]; Part 2, pooled active): 2 (7.4) n (%)
- Application site irritation, number of TEAEs [1, 7]: two
- Fatigue, number of TEAEs [1, 7]: two
- Headache, number of TEAEs [1, 7]: three
- Upper respiratory tract infection, number of TEAEs [1, 7]: two
- Effect of food on bioavailability [2]: significant increase in the bioavailability
- BCR- and FcR-mediated signalling [3]: potently inhibit
- Activity in RA and SLE models (RA and SLE models): robust activity
